From patent publication US8039514B2, “Sulfonamide compounds and use thereof” (Asahi Kasei Pharma Corporation, priority 2008, dated 2011)

B1: PTH: parathyroid hormone (PTH) preparation, a peptide preparation injected subcutaneously (peptide, UniProt P01270 32-115, looked up)
Parathyroid hormone: SVSEIQLMHNLGKHLNSMERVEWLRKKLQDVHNFVALGAPLAPRDAGSQRPRKKEDNVLVESHEKSLGEADKADVNVLTKAKSQ
modifications: Parathyroid hormone
notes: parathyroid hormone (PTH) preparation, a peptide preparation injected subcutaneously

Assays:
[1] = system: PTH concentration in blood; format: in vivo; details: for death or abnormality of the rat administered with the compounds: 0.1-100 mg/kg intravenous or oral; for PTH concentration in blood after 30 minutes / dose dependence of PTH concentration increase / PTH concentration in blood 5 minutes after the intravenous administration: rat, 0.1-100 mg/kg; for PTH concentration in blood 5 minutes after the intravenous administration: Rat Intact PTH ELISA, versus normal value
Method: Compounds of Exp. 3-49, Exp. 3-57, Exp. 3-93, Exp. 3-95, Exp. 3-102, Exp. 3-106, Exp. 8-5, Exp. 10-1 and Exp. 10-25 were chosen as a test compound. Each of them was either dissolved or suspended in physiological saline or distilled water containing 1-20% DMSO, 5% CremophorEL, 10-40% PEG300, etc. and administered intravenously (tail vein or femoral vein) or orally administered to a 7 week to 10 week old male SD-IGS rat (Nippon Charles-River) with dosage of 0.1-100 mg/kg. After that, blood sample was taken from subclavian vein over the time and serum was separated. Concentration of PTH in blood was measured using Rat Intact PTH ELISA Kit (manufactured by Immutopics) to evaluate an activity of increasing PTH concentration in blood. […] Therefore, the safety of these compounds was confirmed again.

[2] = target: T1, human calcium-sensing receptor (CaSR) (Homo sapiens, UniProt P41180); assay: intracellular Ca assay, CaSR antagonist activity in HEK293/hCaSR cells; format: cell-based; details: Fura2-AM, inhibition of response to calcium chloride ligand solution, read-out: IC50 values according to the intracellular Ca assay (CaSR antagonist activity)
T1 construct: expressed in transfected cells
T1 sequence (P41180 20-1078): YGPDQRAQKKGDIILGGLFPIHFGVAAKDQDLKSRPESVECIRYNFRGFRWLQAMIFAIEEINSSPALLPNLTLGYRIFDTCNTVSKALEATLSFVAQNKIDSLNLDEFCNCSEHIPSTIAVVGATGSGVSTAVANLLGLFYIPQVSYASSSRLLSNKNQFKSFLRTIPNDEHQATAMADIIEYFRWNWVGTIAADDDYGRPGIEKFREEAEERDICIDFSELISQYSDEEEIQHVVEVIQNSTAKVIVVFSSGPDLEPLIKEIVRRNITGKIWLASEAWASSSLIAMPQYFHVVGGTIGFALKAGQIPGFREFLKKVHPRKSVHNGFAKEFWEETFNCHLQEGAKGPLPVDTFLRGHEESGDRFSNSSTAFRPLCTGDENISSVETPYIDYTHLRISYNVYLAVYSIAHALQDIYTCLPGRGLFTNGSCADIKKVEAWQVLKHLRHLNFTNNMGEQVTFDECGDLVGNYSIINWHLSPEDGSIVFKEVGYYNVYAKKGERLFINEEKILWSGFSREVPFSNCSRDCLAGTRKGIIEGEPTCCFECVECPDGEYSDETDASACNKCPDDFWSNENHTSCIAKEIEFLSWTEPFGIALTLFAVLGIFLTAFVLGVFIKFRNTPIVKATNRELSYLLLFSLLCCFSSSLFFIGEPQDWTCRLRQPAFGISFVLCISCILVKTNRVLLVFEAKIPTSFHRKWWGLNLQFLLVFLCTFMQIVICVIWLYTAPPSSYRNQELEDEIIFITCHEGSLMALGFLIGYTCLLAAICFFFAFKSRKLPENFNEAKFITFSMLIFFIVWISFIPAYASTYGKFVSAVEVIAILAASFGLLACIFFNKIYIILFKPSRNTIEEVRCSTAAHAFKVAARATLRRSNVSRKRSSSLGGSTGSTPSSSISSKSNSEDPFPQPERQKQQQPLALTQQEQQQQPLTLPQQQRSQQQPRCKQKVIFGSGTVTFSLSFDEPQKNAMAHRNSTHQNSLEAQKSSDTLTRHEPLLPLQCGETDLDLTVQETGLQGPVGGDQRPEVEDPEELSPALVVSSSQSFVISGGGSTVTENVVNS
In short: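 HEK293/hCaSR cells were loaded with Fura2-AM and pre-incubated with compound for 160 s at 37° C in HEPES buffer (pH 7.4, 0.8 mM CaCl2), then challenged with calcium ligand solution. Read-out was the peak 340/380 nm fluorescence ratio; inhibition is relative to no-compound (0%) and no-calcium-ligand (100%) controls.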

[3] = oral everyday for eight weeks, rat with removed ovary; cited from earlier work
[4] = system: PTH concentration in blood; details: single oral administration, rat; cited from earlier work
[5] = PTH 20 μg subcutaneous everyday; ALN 10 mg oral everyday; cited from earlier work
[6] = 20 μg subcutaneously everyday for 19 months in average; cited from earlier work

Molecule	death or abnormality of the rat administered with the compounds [1]	PTH concentration in blood after 30 minutes [1]	dose dependence of PTH concentration increase [1]	PTH concentration in blood 5 minutes after the intravenous administration [1]	IC50 [2]	bone formation evaluated by bone morphometry [3]	bone mineral density [3]	PTH concentration in blood [4]	increase of bone mineral density of lumbar spine 18 months after the administration [5]	bone mineral density increase in lumbar spine [6]	bone mineral density increase in neck of femur [6]	inhibition of frequency of occurrence of new vertebral body fracture [6]	inhibition of frequency of occurrence of non-vertebral body fracture [6]
CN(C[C@H](O)CNC(C)(C)CC1Cc2ccccc2C1)S(=O)(=O)c1cc(-c2ccc(CCC(=O)O)cc2)cc(C(F)(F)F)c1 [Exp. 3-93, (R)-3-(3′-(N-(3-(1-(2,3-dihydro-1H-inden-2-yl)-2-methylpropan-2-ylamino)-2-hydroxypropyl)-N-methylsulfamoyl)-5′-(trifluoromethyl)biphenyl-4-yl)propionic acid]	no death or abnormality was found	returned to a normal value	dependent on the administration amount of the compound	increased at least twice the normal value	≤ 300 nM	–	–	–	–	–	–	–	–
CN(C[C@H](O)CNC(C)(C)CC1Cc2ccccc2C1)S(=O)(=O)c1ccc(-c2ccc(CCC(=O)O)cc2)c(Cl)c1 [Exp. 3-106, (R)-3-(2′-chloro-4′-(N-(3-(1-(2,3-dihydro-1H-inden-2-yl)-2-methylpropan-2-ylamino)-2-hydroxypropyl)-N-methylsulfamoyl)biphenyl-4-yl)propionic acid]	no death or abnormality was found	returned to a normal value	dependent on the administration amount of the compound	increased at least twice the normal value	≤ 300 nM	–	–	–	–	–	–	–	–
CN(C[C@H](O)CNC(C)(C)CCCc1ccccc1)S(=O)(=O)c1cc(CCC(=O)O)cc(C(F)(F)F)c1 [Exp. 8-5, (R)-3-(3-(N-(2-hydroxy-3-(2-methyl-5-phenylpentan-2-ylamino)propyl)-N-methylsulfamoyl)-5-(trifluoromethyl)phenyl)propionic acid]	no death or abnormality was found	returned to a normal value	dependent on the administration amount of the compound	increased at least twice the normal value	≤ 300 nM	–	–	–	–	–	–	–	–
CC(C)(Cc1ccc2ccccc2c1)NC[C@@H](O)COc1cccc(Cl)c1C#N [NPS2143]	–	–	–	–	–	increased	remained almost the same	continuously increased	–	–	–	–	–
B1	–	–	–	–	–	–	–	–	10.3%	9.7%	2.8%	65%	53%
